Laboratory results from US10392649B2, “Biosensors that detect NAD+” (Oregon Health & Science University, priority 2014, dated 2019).

Tests used:
[1] = Fluorescence spectroscopy of purified sensor with NAD+ (cell free); type: binding; details: for effect of NAD+ on fluorescence (ex. 488 nm): purified protein, NAD+ concentrations up to 1 mM
Experimental: Fluorescence emission spectra were recorded using a PTI steady-state fluorescence spectrophotometer. Excitation spectra were captured at 530 nm while exciting from 350 to 515 nm. Emission spectra were measured by excitation at 405 nm or 488 nm while scanning the fluorescence intensity of 475 to 600 nm.
The sensors and controls were purified in batch format from mammalian HEK293T cells via their N-terminal Flag epitope tag, using anti-Flag M2 Affinity Gel (Sigma) and lysis buffer (50 mM Tris pH 7.4, 150 mM NaCl, 1 mM EDTA, 10 mM NaF, 0.5% NP-40, 1 mM DTT, and Complete Protease Inhibitor cocktail). Protein was eluted with 500 μg/mL 3× Flag peptide and dialyzed against 100 mM Tris pH 7.4, 150 mM NaCl, 0.5 mM DTT, 100 μM PMSF, 1 mM EDTA, and 50% glycerol. Bradford assays were used to quantify the concentration in each batch and aliquots were flash frozen in liquid nitrogen for storage at −80° C.
(§1) Steady-state fluorescence intensity measurements were performed using a Photon Technology International Quanta Master fluorimeter. Excitation spectra were monitored at 530 nm and emission spectra were measured by excitation at 488 nm and 405 nm. Slit widths used gave 8 nm bandpass for excitation and 44 nm bandpass for emission. Absorbance spectroscopy was performed on a Shimadzu 1601 spectrophotometer. Temperature was controlled with a water jacket and monitored using an Omega Thermistor.

[2] = Calibration of cytoplasmic sensor in digitonin permeabilized HEK293T cells, flow cytometry; type: cell-based
Experimental: The free NAD+ concentration in the nucleus and cytoplasm has been debated. To calibrate the sensor, cells were permeabilized with digitonin to allow internal NAD+ levels to equilibrate with concentrations external to the cell and fluorescence monitored by flow cytometry. Equilibration was assessed using propidium iodide (PI), whose molecular weight is similar to that of NAD+ (FIG. 29). […] The mean of the fluorescence ratio (488/405 nm) for the cytoplasmic sensor in non-permeabilized HEK293T cells relative to cpVenus was interpolated to reveal a free NAD+ value of 105.8 μM (95% Cl, 92.3 μM to 121.7 μM). […] To confirm these calculations, flow cytometry was used to examine the fluorescence of the cytoplasmic sensor in populations of HeLa cells that were partially permeabilized (FIG. 16B). When equilibrated with either 500 μM or 1 mM NAD+, cytoplasmic fluorescence of the permeabilized cell population decreased, indicating an increase in NAD+. In contrast, equilibration with media containing no external NAD+ increased fluorescence, likely due to NAD+ diffusion. […]
Data was collected on a special order BD LSRFortessa using 488-1 (Ex. 488 nm, Em. 525/50) and 405-2 (ex. 405 nm, Em. 515/20) for the sensor, and Ex. 561-3 (ex. 561, em 670/30) for PI intensity. Cells were gated to exclude debris, a standard doublet-exclusion was performed, and 1×10^4 fluorescent cells were evaluated per condition. […]

[3] = NAD+ washout (reversibility of binding to purified sensor); details: 500 μM NAD+, elution over buffer exchange column
Experimental: Purified sensor (2 μM) was incubated with either 0μ or 500 μM NAD+ in a total of 75 μL and evaluated for its fluorescence excitation and emission spectra. Each sample was then passed over a pre-equilibrated (50 mM Tris pH 7.4, 150 mM NaCl) micro buffer exchange column (Biorad microbiospin P30), washed, and eluted in […] buffer volume for reevaluation of fluorescence.

[4] = Fluorescence lifetime measurements of the sensor; details: 488 nm excitation
Experimental: Fluorescence lifetime measurements were performed on a PicoQuant FluoTime 200 time correlated single photon counting instrument (PicoQuant, Berlin), outfitted with a Hamamatsu micro-channel plate detector. Decays were measured with the polarizers at the magic angle and with 16 nm bandpass emission slits. […] Emission from the samples was collected at 525 nm, with an additional 520 nm long-pass filter on the detector side of the sample. The fluorescence decays were fit by means of PicoQuant software, using an exponential decay model [I(t)=Σi-1^nAie^−t/τ^i] where A, is the amplitude of the i^th component, in counts, in the first range fitting channel and τi is the lifetime of the i^th component.

[5] = Competition for free NAD+ with GAPDH, sensor fluorescence in real time; type: binding; details: equimolar GAPDH, absence of substrate, 10 μM NAD+
Experimental: Fluorescence emission of […] purified sensor was monitored at 520 nm following excitation at 488 nm over time. Three 1-second exposures were obtained every 30 seconds at 20° C. in 100 mM HEPES pH7.4, 150 mM NaCl, 10 mM MgCl2. At the 240 timepoint, NAD+ was added to a final concentration of 10 μM; at the 600 second timepoint, full-length active human GAPDH (AbCam) was added to a final concentration of 11.7 μM. Fluorescence measurements were corrected for dilution factor. Mean±SD, n=2.

NAD+ sensor = target: T1, NAD+ sensor (Enterococcus faecalis, UniProt Q837V6, D286N/K120L); assay: Specificity of the sensor: fluorescence with related mononucleotides, dinucleotides and NAD+ precursors; type: binding; details: purified sensor
T1 construct: HA (N); made in house; host or cells: HEK293T
T1 sequence (Q837V6 other isoform, or with tags, fused parts or gaps K120L/D286N): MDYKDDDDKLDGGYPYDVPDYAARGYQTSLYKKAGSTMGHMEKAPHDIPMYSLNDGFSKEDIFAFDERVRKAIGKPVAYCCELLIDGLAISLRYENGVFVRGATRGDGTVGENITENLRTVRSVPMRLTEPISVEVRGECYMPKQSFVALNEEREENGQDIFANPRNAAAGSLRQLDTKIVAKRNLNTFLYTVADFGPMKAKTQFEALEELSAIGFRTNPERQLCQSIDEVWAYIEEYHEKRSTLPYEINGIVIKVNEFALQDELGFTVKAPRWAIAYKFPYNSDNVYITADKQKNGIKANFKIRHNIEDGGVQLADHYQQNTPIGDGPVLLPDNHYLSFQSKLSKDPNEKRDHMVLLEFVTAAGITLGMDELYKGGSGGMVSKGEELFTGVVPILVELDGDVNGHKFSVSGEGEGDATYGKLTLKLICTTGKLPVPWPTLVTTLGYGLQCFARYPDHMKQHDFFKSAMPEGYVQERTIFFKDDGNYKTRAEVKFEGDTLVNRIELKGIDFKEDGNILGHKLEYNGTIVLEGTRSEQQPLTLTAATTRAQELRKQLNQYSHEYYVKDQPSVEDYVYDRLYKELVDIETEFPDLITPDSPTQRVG
Experimental: To determine the specificity of the sensor for NAD+, sensor fluorescence was evaluated in the presence of related mononucleotides, dinucleotides, and NAD+ precursors (FIG. 14G). […] Thus, pH effects can be accommodated by normalizing to cpVenus. […] (FIG. 24A, 24B, 24C).
as §1

HeLa cells [6] = assay: NR in HeLa cells treated with siNAMPT, cytoplasmic sensor; type: cell-based; details: NR 1 mM, 24 hours
Experimental: In further experiments, siRNAs that target NAMPT were added to the cells (FIG. 15D). […] Importantly, nicotinamide riboside (NR) increased NAD+ levels in these cells through a parallel pathway that utilizes NR kinase to bypass NAMPT (Bieganowski P and Brenner C, Cell 117, 495-502 (2004); incorporated by reference herein) (FIG. 15E).
Live cell imaging was done on a fully motorized Nikon TiE stand with a Yokogawa W1 spinning disk confocal unit. Instrumentation for this project included a motorized stage in x and y for point-revisiting; z-axis control for fast piezo-based positioning and continuous focus-drift compensation for live cell imaging; dual-pinhole array for improved optical sectioning, a high powered Agilent laser launch; split simultaneous acquisition on two Andor Zyla 5.5 sCMOS cameras; and a 100×1.49 Apo TIRF objective. During imaging, cells were maintained in 5% CO2 at 34° C. Cells were excited at 488 nm and monitored with emission 525/25 nm. For each condition, at least 5 fields containing approximately 50-100 cells were used for quantification of pixel intensity using Metamorph software. The mean intensity per field of each siRNA was normalized to the scramble condition to obtain the normalized intensity measurement.

cytoplasmic sensor = target: T2, cytoplasmic sensor (Enterococcus faecalis, UniProt Q837V6, D286N/K120L); assay: NR effect on cytoplasmic sensor fluorescence when NMNAT2 was depleted; type: cell-based; details: NR 1 mM, 24 hours
T2 construct: expressed in transfected cells; HeLa cells were also used
T2 sequence (Q837V6 other isoform, or with tags, fused parts or gaps K120L/D286N): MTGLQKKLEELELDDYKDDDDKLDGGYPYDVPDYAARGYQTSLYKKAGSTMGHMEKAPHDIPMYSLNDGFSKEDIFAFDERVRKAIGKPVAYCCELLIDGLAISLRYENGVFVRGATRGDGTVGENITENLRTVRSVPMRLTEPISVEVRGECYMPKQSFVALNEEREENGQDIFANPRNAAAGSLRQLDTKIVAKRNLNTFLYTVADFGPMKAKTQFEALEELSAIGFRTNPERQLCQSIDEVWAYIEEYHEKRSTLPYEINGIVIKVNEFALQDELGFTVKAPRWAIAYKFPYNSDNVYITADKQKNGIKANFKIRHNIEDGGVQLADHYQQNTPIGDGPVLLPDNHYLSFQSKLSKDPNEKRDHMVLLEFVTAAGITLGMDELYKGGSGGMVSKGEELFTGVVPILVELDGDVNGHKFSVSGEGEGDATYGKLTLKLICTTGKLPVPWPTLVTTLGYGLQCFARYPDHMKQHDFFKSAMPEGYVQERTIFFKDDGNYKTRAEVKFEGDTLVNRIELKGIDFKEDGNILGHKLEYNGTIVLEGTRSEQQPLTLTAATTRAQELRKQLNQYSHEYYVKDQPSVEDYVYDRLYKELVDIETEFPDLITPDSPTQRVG
Source text: FIG. 28 is a bar graph showing that Nicotinamide riboside (NR) has no direct effect on the fluorescence of the cytoplasmic sensor. The cytoplasmically-localized sensor reported a decrease of cytoplasmic NAD+ following depletion of NMNAT2.

HeLa cells [7] = assay: NR rescue of mitochondrial NAD+ in HeLa cells depleted of NMNAT2; type: cell-based; details: NR 1 mM, 24 hours, NMNAT2 depletion
Source text: To confirm this, HeLa cells, which contain very low levels of NMNAT3, were examined. […] Despite its low expression, NMNAT2 was active in HeLa cells, as its depletion decreased cytoplasmic NAD+ (FIG. 38). […] (FIG. 17B). This depletion was not rescued by addition of NR, implying that cytoplasmic NAD+, and not NMN, is responsible for maintaining mitochondrial NAD+ levels in HeLa cells (FIG. 17B). Thus, there appear to be multiple mechanisms for maintaining mitochondrial NAD+ in different cell types; conversion of NMN by NMNAT3 and active transport of cytoplasmic NAD+. An NAD+ transporter has been identified in bacteria (Haferkamp I et al, Nature 432, 622-625 (2004); incorporated by reference herein), yeast (Todisco S et al, J Biol Chem 281, 1524-1531 (2006); incorporated by reference herein), and plants (Palmieri F et al, J Biol Chem 284, 31249-31259 (2009); incorporated by reference herein), although a mammalian homologue has not yet been identified.
(§2) Live cell imaging was done on a fully motorized Nikon TiE stand with a Yokogawa W1 spinning disk confocal unit. […] Cells were excited at 488 nm and monitored with emission 525/25 nm. For each condition, at least 5 fields containing approximately 50-100 cells were used for quantification of pixel intensity using Metamorph software. […]

HEK293T = assay: NAD+ depletion by FK866 in HEK293T lines expressing localized sensors, live flow cytometry; type: cell-based; details: 10 nM FK866, 18 hours; nuclear, cytoplasmic, mitochondrial sensors
Experimental: (§3) Localization sequences were used to direct the sensor to the nucleus, cytoplasm, and mitochondria (FIG. 15A and FIG. 25A, 25B, 25C). […] Mammalian cells predominantly rely on the NAMPT-dependent salvage pathway for NAD+ biosynthesis (Revollo et al, 2004 supra), and presumably all subcellular compartments would be affected by NAMPT inhibition. To test this idea, clonal HEK293T lines stably expressing the localized sensors or their corresponding cpVenus control were generated. Cells were treated with FK866, a potent inhibitor of NAMPT, and NAD+ depletion in different compartments was monitored by live flow cytometry (FIG. 15B). FK866 increased sensor fluorescence in all compartments, indicating a reduction in NAD+ levels. Fluorescence was also monitored in cells expressing the cytoplasmic sensor using live microscopy (FIG. 15C). […]
Data was collected on a special order BD LSRFortessa using 488-1 (Ex. 488 nm, Em. 525/50) and 405-2 (ex. 405 nm, Em. 515/20) for the sensor, and Ex. 561-3 (ex. 561, em 670/30) for PI intensity. Cells were gated to exclude debris, a standard doublet-exclusion was performed, and 1×10^4 fluorescent cells were evaluated per condition. Data were analyzed and plotted with FlowJo X. Sensor 488/405 ratiometric values were normalized to the appropriate cpVenus and experimental controls. […]

HEK293T cells [8] = assay: NAD+ depletion by FK866 in cells expressing cytoplasmic sensor, live microscopy; type: cell-based
Experimental: as §3, with “15C). Treatment with FK866 began to decrease NAD+ levels in the majority of cells within 1 hour; by 3 hours pockets of NAD+ decreases were observed, which spread throughout the cytoplasm.” for “15C).”
as §2

HEK293T cells [9] = assay: HPLC of perchlorate extracted NAD+ from HEK293T cells; type: cell-based; details: 10 nM FK866, 16 hours
Experimental: FIG. 6A is a set of three HPLC spectra from 10 μM purified NAD^+ standard compared to perchlorate extracted NAD^+ from HEK293T cells treated with 0 nM (middle) or 10 nM (bottom) FK866 for 16 hours. Note that NAD^+ is recovered from untreated cells while it is depleted in FK866 treated cells.

Compound: cpVenus: circularly permuted version of Venus fluorescent protein, control
- effect of NAD+ on fluorescence (ex. 488 nm) [1]: minimally affected
- effect of NAD+ on fluorescence in permeabilized cells [2]: minimally affected

Compound: sensor: NAD+ biosensor polypeptide: FLAG, HA, LigA 78-317 fragment, cpVenus, linker, LigA 2-70 fragment
- change in the Kd value with temperature ([1]; between 20-37° C.): no significant changes
- Kd ([1]; in vitro, purified sensor, 488 nm, read-out: apparent Kd(NAD+)): ~65 µM
- NAD+-dependent responses across pH ([1]; pH 6.5-8.0): similar
- effect of NAD+ on fluorescence (ex. 488 nm) [1]: decreased
- effect of NAD+ binding on second excitation peak at 405 nm ([1]; purified sensor): unaffected
- reversibility of NAD+ binding [3]: reversible
- effect of NAD+ on fluorescence lifetime [4]: did not affect

Compound: GAPDH: full-length active human glyceraldehyde 3-phosphate dehydrogenase (AbCam)
- sensor fluorescence upon GAPDH addition [5]: almost immediate recovery of fluorescence

Compound: NC(=O)c1ccc[n+]([C@@H]2O[C@H](CO)[C@@H](O)[C@H]2O)c1 [NR, nicotinamide riboside]
- effect of substrate on sensor fluorescence / recognition by the sensor (NAD+ sensor): not recognized
- NAD+ levels (HeLa cells [6]): increased
- nonspecific effect on sensor fluorescence (cytoplasmic sensor): did not alter
- rescue of decreased mitochondrial NAD+ (HeLa cells [7]): not rescued

Compound: NC(=O)c1ccc[n+]([C@@H]2O[C@H](COP(=O)([O-])OP(=O)(O)OC[C@H]3O[C@@H](n4cnc5c(N)ncnc54)[C@H](O)[C@@H]3O)[C@@H](O)[C@H]2O)c1 [NAD+, nicotinamide adenine dinucleotide]
- effect of substrate on sensor fluorescence / recognition by the sensor (NAD+ sensor): decreased sensor fluorescence

Compound: O=C(/C=C/c1cccnc1)NCCCCC1CCN(C(=O)c2ccccc2)CC1 [FK866]
- sensor fluorescence in all compartments (indicating reduction in NAD+ levels) (HEK293T): increased
- time at which NAD+ levels began to decrease in the majority of cells (HEK293T cells [8]): ≤ 1 h
- NAD+ recovered by HPLC (HEK293T cells [9]): depleted
